# According to patent US9504676B2, “Molecules inhibiting a metabolic pathway involving the Syk protein tyrosine kinase and method for identifying said molecules” (CENTRE NATIONAL DE LA RECHERCHE SCIENTIFIQUE, priority 2008, dated 2016):
# Legend:
# [1] = molecular target: T1, murine Syk tyrosine kinase protein (GST:Syk 6-242) (Mus musculus, UniProt P48025); experiment: ADA method: displacement of the binding of scFv G4G11 with Syk (ELISA); settings: small molecules at 10 μM, scFv G4G11 100 nM; read-out: In vit. inhib.: mean inhibition % of the binding of scFv G4G11 with Syk in the ADA method
# T1 construct: made in house
# Source text: The term “percentage of inhibition” of the binding of an antibody or antibody fragment with Syk protein, particularly refers to the ratio […], where A consists of the intensity of a signal proportional to the quantity of an antibody or antibody fragment bound with Syk protein in the absence of a molecule according to the invention and B the intensity of the same signal in the presence of a molecule according to the invention under the same conditions. […] This test may be performed for example according to the protocol described in example 3-2) hereinafter.
# The inventors developed the ADA (Antigen Displacement Assay) method to identify small molecules capable of displacing the association with scFv G4G11 with Syk. […] To understand the mode of action of C-13, the inventors firstly identified the binding site of G4G11 using the SPOT method^16. An epitope located on the N-terminal SH2 domain of Syk, comprising amino acids 65-74 and 100% preserved in mouse, rat and human sequences, was identified.
# The ADA method was then applied to each of these […] molecules to measure the ability thereof to inhibit the binding of scFv G4G11 with Syk.
# (§1) • 1) Chemical products and antibodies. A chemical bank of 3000 molecules (a varied subset) was acquired from ChemBridge, Inc. (San Diego, Calif.). Stocks of solutions of small molecules were prepared at a rate of 10 mM in DMSO (dimethylsulphoxide), except for C-13 (methyl 2-{5-[(3-benzyl-4-oxo-2-thioxo-1,3-thiazolidin-5-ylidene)methyl]-2-furyl}benzoate, ChemBridge ID No. 6197026) prepared in DMF (dimethylformamide). Unless specified otherwise, all the reagents were supplied by Sigma. Dinitrophenyl (DNP) hapten was acquired from Calbiochem. Sepharose GammaBind G and all the secondary antibodies were supplied by GE Health Amersham Biosciences. The anti-Syk, anti-Lyn, anti-Btk, anti-PLC-γ1, anti-PLC-γ2, anti-LAT, anti-SLP-76, anti-p38, anti-JNK, anti-Vav, anti-Akt1 and 9E10 antibodies conjugated with HRP were acquired from Santa Cruz Biotechnology. The anti-phospho-p44/42 MAP Kinase, anti-p44/42 MAP Kinase, anti-phospho-p38, anti-phospho-JNK, anti-phospho-Akt1 antibodies were acquired from Cell Signaling. The anti-phospho-LAT and anti-phospho-PLC-γ1 antibodies were supplied by Biosource and the anti-phospho-SLP-76 antibodies by BD Pharmingen. The 4G10 anti-phosphotyrosine monoclonal antibody was acquired from Upstate Biotechnology. • 2) ADA method: ELISA type high-speed molecule screening test, based on antibody displacement (WO 2005106481). The recombinant fusion protein GST:Syk 6-242^8 comprising the residues 6 to 242 of murine Syk tyrosine kinase protein illustrated in FIG. 8B (SEQ ID No. 4) was immobilised on an ELISA plate at a final concentration of 10 μg ml^−1. For the screening of the chemical molecule bank, the small molecules, diluted in PBS at a final concentration of 10 μM were added to the wells for one hour at ambient temperature, before adding the fragment scFv G4G11 at a final concentration of 100 nM for an additional hour. The binding of G4G11 with Syk was assessed by adding the 9E10 monoclonal antibody conjugated with HRP detecting the amino acid sequence EQKLISEEDLN of human c-myc protein located at the C-terminal end of the scFv fragment. To generate Syk mutants, targeted mutagenesis was used on GST:Syk 6-242 protein and the binding of G4G11 with the mutants was assessed in the presence of 5 μM of C-13. • 3) Cells, culture conditions and functional tests. Anti-DNP 2682-I mouse monoclonal antibody was used as the culture supernatant of hybridomas containing 1 μg/ml of IgE. Femoral bone marrow cells were sampled and cultured in Opti-MEM medium (Gibco) supplemented with 10% foetal calf serum and 4% X63 transfectant supernatant secreting murine IL-3. RBL-2H3 (ATCC) leukaemic rat basophil cells were maintained in a single-layer culture in RPMI 1640 medium supplemented with 10% foetal calf serum (Gibco). […]
# RBL-2H3 cells = experiment: cells; assay type: cell-based, rat; settings: Rattus norvegicus; RBL-2H3 cells; read-out: Degran. IC50: concentration inhibiting mast cell degranulation by 50%
# Method: These 87 molecules were also tested in vitro to assess the ability thereof to inhibit RBL-2H3 cell degranulation (see table 1).
# as §1, with “(Gibco). Measurements of β-hexosaminidase released by the RBL-2H3 cells were performed as described previously^7, except that, after 12-16 hours of incubation with anti-DNP IgE (0.5 μg/ml), the cells were incubated for 90 min at 37° C. in RPMI medium supplemented with the specified concentrations of C-13 or DMF (0.25%). The cells were stimulated for 45 min with DNP-BSA (50 ng ml^−1) or ionomycin (1.5 μM). The BMMC cells were incubated for one hour at 37° C. with anti-DNP IgE (100 ng/ml). They were then incubated with C-13 (3 μM) or DMF (0.3%) for 3 hours at 37° C., and stimulated with varied concentrations of DNP-BSA. The level of β-hexosaminidase released was measured 10 min later and the TNF-α titration was performed by means of a cytotoxicity test on L929 cells as described previously^10, 3 hours after stimulation. The results illustrated in FIG. 3 are representative of three independent experiments. • 4) Immunoprecipitations, in vitro kinase assays and immunodetection.” for “(Gibco).”
inhibition at 10 µM [1] [%],IC50 (RBL-2H3 cells) [mg/L],SMILES
71,> 10,"COc1cc(C2C(C(=O)c3cccs3)=C(O)C(=O)N2CCc2ccccc2)cc(Br)c1O (stereo not drawn) [Molecule 8, 5-(3-bromo-4-hydroxy-5-methoxyphenyl)-3-hydroxy-1-(2-phenylethyl)-4-(2-thienylcarbonyl)-1,5-dihydro-2H-pyrrol-2-one]"
70.5,> 10,"COc1ccc(OC)c(C2C(C(=O)c3ccc(C)cc3)=C(O)C(=O)N2Cc2cccnc2)c1 (stereo not drawn) [Molecule 11, 5-(2,5-dimethoxyphenyl)-3-hydroxy-4-(4-methylbenzoyl)-1-(3-pyridinylmethyl)-1,5-dihydro-2H-pyrrol-2-one]"
69,> 10,CCOC(=O)c1[nH]c(N2C(=O)C(O)=C(C(=O)c3ccccc3)C2c2ccc(OC)cc2)nc1C (stereo not drawn) [Molecule 12]
67.5,> 10,"COc1ccc(C(=O)C2=C(O)C(=O)N(CCN3CCOCC3)C2c2cccnc2)c(C)c1 (stereo not drawn) [Molecule 14, 3-hydroxy-4-(4-methoxy-2-methylbenzoyl)-1-[2-(4-morpholinyl)ethyl]-5-(3-pyridinyl)-1,5-dihydro-2H-pyrrol-2-one]"
60,> 10,"CC(C)c1ccc(C2C(C(=O)c3ccc(F)cc3)=C(O)C(=O)N2CCCN2CCOCC2)cc1 (stereo not drawn) [Molecule 19, 4-(4-fluorobenzoyl)-3-hydroxy-5-(4-isopropylphenyl)-1-[3-(4-morpholinyl)propyl]-1,5-dihydro-2H-pyrrol-2-one]"
60,> 10,Cc1cccc(OCC(=O)Nc2cccc3c(NC(=O)COc4cccc(C)c4)cccc23)c1 [Molecule 20]
57,> 10,"O=C(O)CCC(=O)N(Cc1ccccc1)Cc1cn(-c2ccccc2)nc1-c1cccs1 [Molecule 23, 4-(benzyl{[1-phenyl-3-(2-thienyl)-1H-pyrazol-4-yl]methyl}amino)-4-oxo butanoic acid]"

# Second part, the molecule before the results:
SMILES,inhibition at 10 µM [1] [%],IC50 (RBL-2H3 cells) [mg/L]
"COc1ccc(OC)c(C2C(C(=O)c3ccccc3)=C(O)C(=O)N2CCCn2ccnc2)c1 (stereo not drawn) [Molecule 5, 4-benzoyl-5-(2,5-dimethoxyphenyl)-3-hydroxy-1-[3-(1H-imidazol-1-yl)propyl]-1,5-dihydro-2H-pyrrol-2-one]",77.5,> 10
"COc1ccccc1C1C(C(=O)c2cc(C)ccc2C)=C(O)C(=O)N1CCN1CCOCC1 (stereo not drawn) [Molecule 7, 4-(2,5-dimethylbenzoyl)-3-hydroxy-5-(2-methoxyphenyl)-1-[2-(4-morpholinyl)ethyl]-1,5-dihydro-2H-pyrrol-2-one]",72,> 10
"O=C(C1=C(O)C(=O)N(Cc2cccnc2)C1c1cccc(Oc2ccccc2)c1)c1ccc(F)cc1 (stereo not drawn) [Molecule 9, 4-(4-fluorobenzoyl)-3-hydroxy-5-(3-phenoxyphenyl)-1-(3-pyridinylmethyl)-1,5-dihydro-2H-pyrrol-2-one]",71,> 10
"COC(=O)c1sc(N2C(=O)C(O)=C(C(=O)c3ccccc3)C2c2ccc(C)cc2)nc1C (stereo not drawn) [Molecule 16, methyl 2-[3-benzoyl-4-hydroxy-2-(4-methylphenyl)-5-oxo-2,5-dihydro-1H-pyrrol-1-yl]-4-methyl-1,3-thiazole-5-carboxylate]",67,> 10
"COc1cc(NS(=O)(=O)c2ccc(NC(C)=O)cc2)c(OC)cc1NC(=O)c1ccccc1 [Molecule 21, N-[4-({[4-(acetylamino)phenyl]sulphonyl}amino)-2,5-dimethoxyphenyl] benzamide]",58,> 10
"Cc1ccc(-n2c3c(cc(C(=O)NC4CC(C)(C)NC(C)(C)C4)c2=O)C(=O)CC(C)(C)C3)cc1 [Molecule 22, 7,7-dimethyl-1-(4-methylphenyl)-2,5-dioxo-N-(2,2,6,6-tetramethyl-4-piperidinyl)-1,2,5,6,7,8-hexahydro-3-quinoline carboxamide]",57.5,> 10
"COc1cccc(C2C(C(=O)c3ccc(F)cc3)=C(O)C(=O)N2CCCN2CCOCC2)c1 (stereo not drawn) [Molecule 24, 4-(4-fluorobenzoyl)-3-hydroxy-5-(3-methoxyphenyl)-1-[3-(4-morpholinyl)propyl]-1,5-dihydro-2H-pyrrol-2-one]",57,> 10
"COc1cc(C2C(C(=O)c3ccc(Cl)cc3)=C(O)C(=O)N2CCCN2CCOCC2)cc(OC)c1OC (stereo not drawn) [Molecule 25, 4-(4-chlorobenzoyl)-3-hydroxy-1-[3-(4-morpholinyl)propyl]-5-(3,4,5-trimethoxyphenyl)-1,5-dihydro-2H-pyrrol-2-one]",56.5,> 10
